Key:
late watergrass = experiment: Test Example 1: herbicidal activity, application before weed generation under submerged conditions (Table 16, symbol A); type: in vivo, late watergrass (Echinochloa oryzicola); details: 320 g/ha applied herbicide
Outline: (§1)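 Alluvial soil was flooded to 4 cm depth, weed seeds were sown mixed and 2.5-leaf rice seedlings were transplanted. On sowing day, the compound's emulsion, diluted in water to a set dose, was applied to the water surface. Plants grew at 25–30 °C and were scored 0–5 after three weeks.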

Japanese bulrush = experiment: Test Example 1: herbicidal activity, application before weed generation under submerged conditions (Table 16, symbol B); type: in vivo, Japanese bulrush (Schoenoplectus juncoides); details: 320 g/ha applied herbicide
Outline: as §1

oval-leafed pondweed = experiment: Test Example 1: herbicidal activity, application before weed generation under submerged conditions (Table 16, symbol C); type: in vivo, oval-leafed pondweed (Monochoria vaginalis); details: 320 g/ha applied herbicide
Outline: as §1

barnyard grass [1] = experiment: Test Example 3: herbicidal effect by foliage application, Wagner pot (Table 18, symbol H); type: in vivo, barnyard grass (Echinochloa crus-galli)
Outline: (§2)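 Plants were sown in alluvial soil held under 0.1–0.5 cm standing water and grown 14 days in a greenhouse at 25–30 °C. An emulsifiable formulation, water-diluted to the set dose, was then sprayed onto the foliage, and effects were scored three weeks later using previously defined criteria.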

Chinese sprangletop = experiment: Test Example 3: herbicidal effect by foliage application, Wagner pot (Table 18, symbol D); type: in vivo, chinese sprangletop (Leptochloa chinensis)
Outline: as §2

rice flat sedge = experiment: Test Example 3: herbicidal effect by foliage application, Wagner pot (Table 18, symbol E); type: in vivo, rice flat sedge (Cyperus iria)
Outline: as §2

southern crabgrass [2] = experiment: Test Example 4: herbicidal effect by soil treatment (Table 19, symbol F); type: in vivo, southern crabgrass (Digitaria ciliaris); details: amount of applied herbicide 320 g/ha
Outline: (§3)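 Step 1: sow seeds in sterilized diluvial soil, cover ~1.5 cm. Step 2: spray diluted emulsion onto soil surface at predetermined rate. Step 3: greenhouse, 25–30° C, three weeks. Step 4: grade effect on each plant by earlier criteria.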

green foxtail [3] = experiment: Test Example 4: herbicidal effect by soil treatment (Table 19, symbol G); type: in vivo, green foxtail (Setaria viridis); details: amount of applied herbicide 320 g/ha
Outline: as §3

barnyard grass [4] = experiment: Test Example 4: herbicidal effect by soil treatment (Table 19, symbol H); type: in vivo, barnyard grass (Echinochloa crus-galli); details: amount of applied herbicide 320 g/ha
Outline: as §3

wild oat [5] = experiment: Test Example 4: herbicidal effect by soil treatment (Table 19, symbol I); type: in vivo, wild oat (Avena fatua); details: amount of applied herbicide 320 g/ha
Outline: as §3

blackgrass [6] = experiment: Test Example 4: herbicidal effect by soil treatment (Table 19, symbol J); type: in vivo, blackgrass (Alopecurus myosuroides); details: amount of applied herbicide 320 g/ha
Outline: as §3

Italian ryegrass [7] = experiment: Test Example 4: herbicidal effect by soil treatment (Table 19, symbol K); type: in vivo, Italian ryegrass (Lolium multiflorum); details: amount of applied herbicide 320 g/ha
Outline: as §3

windgrass [8] = experiment: Test Example 4: herbicidal effect by soil treatment (Table 19, symbol L); type: in vivo, windgrass (Apera spica-venti); details: amount of applied herbicide 320 g/ha
Outline: as §3

velvetleaf [9] = experiment: Test Example 4: herbicidal effect by soil treatment (Table 19, symbol M); type: in vivo, velvetleaf (Abutilon theophrasti); details: amount of applied herbicide 320 g/ha
Outline: as §3

redroot pigweed [10] = experiment: Test Example 4: herbicidal effect by soil treatment (Table 19, symbol N); type: in vivo, redroot pigweed (Amaranthus retroflexus); details: amount of applied herbicide 320 g/ha
Outline: as §3

lambsquarters [11] = experiment: Test Example 4: herbicidal effect by soil treatment (Table 19, symbol O); type: in vivo, lambsquarters (Chenopodium album); details: amount of applied herbicide 320 g/ha
Outline: as §3

chickweed [12] = experiment: Test Example 4: herbicidal effect by soil treatment (Table 19, symbol P); type: in vivo, common chickweed (Stellaria media); details: amount of applied herbicide 320 g/ha
Outline: as §3

persian speedwell [13] = experiment: Test Example 4: herbicidal effect by soil treatment (Table 19, symbol R); type: in vivo, Persian speedwell (Veronica persica); details: amount of applied herbicide 320 g/ha
Outline: as §3

southern crabgrass [14] = experiment: Test Example 5: herbicidal effect by foliage application, plastic box (Table 20, symbol F); type: in vivo, southern crabgrass (Digitaria ciliaris); details: foliage application, 320 g/ha, evaluated three weeks after application
Outline: (§4)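 Foliar spray test: emulsion formulation diluted in water to a set application rate, sprayed onto 14-day-old plants raised in diluvial soil at 25° C to 30° C under glass. Both herbicidal effect and crop effect rated visually three weeks later.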

green foxtail [15] = experiment: Test Example 5: herbicidal effect by foliage application, plastic box (Table 20, symbol G); type: in vivo, green foxtail (Setaria viridis); details: foliage application, 320 g/ha, evaluated three weeks after application
Outline: as §4

barnyard grass [16] = experiment: Test Example 5: herbicidal effect by foliage application, plastic box (Table 20, symbol H); type: in vivo, barnyard grass (Echinochloa crus-galli); details: foliage application, 320 g/ha, evaluated three weeks after application
Outline: as §4

wild oat [17] = experiment: Test Example 5: herbicidal effect by foliage application, plastic box (Table 20, symbol I); type: in vivo, wild oat (Avena fatua); details: foliage application, 320 g/ha, evaluated three weeks after application
Outline: as §4

blackgrass [18] = experiment: Test Example 5: herbicidal effect by foliage application, plastic box (Table 20, symbol J); type: in vivo, blackgrass (Alopecurus myosuroides); details: foliage application, 320 g/ha, evaluated three weeks after application
Outline: as §4

Italian ryegrass [19] = experiment: Test Example 5: herbicidal effect by foliage application, plastic box (Table 20, symbol K); type: in vivo, Italian ryegrass (Lolium multiflorum); details: foliage application, 320 g/ha, evaluated three weeks after application
Outline: as §4

windgrass [20] = experiment: Test Example 5: herbicidal effect by foliage application, plastic box (Table 20, symbol L); type: in vivo, windgrass (Apera spica-venti); details: foliage application, 320 g/ha, evaluated three weeks after application
Outline: as §4

velvetleaf [21] = experiment: Test Example 5: herbicidal effect by foliage application, plastic box (Table 20, symbol M); type: in vivo, velvetleaf (Abutilon theophrasti); details: foliage application, 320 g/ha, evaluated three weeks after application
Outline: as §4

redroot pigweed [22] = experiment: Test Example 5: herbicidal effect by foliage application, plastic box (Table 20, symbol N); type: in vivo, redroot pigweed (Amaranthus retroflexus); details: foliage application, 320 g/ha, evaluated three weeks after application
Outline: as §4

lambsquarters [23] = experiment: Test Example 5: herbicidal effect by foliage application, plastic box (Table 20, symbol O); type: in vivo, lambsquarters (Chenopodium album); details: foliage application, 320 g/ha, evaluated three weeks after application
Outline: as §4

chickweed [24] = experiment: Test Example 5: herbicidal effect by foliage application, plastic box (Table 20, symbol P); type: in vivo, common chickweed (Stellaria media); details: foliage application, 320 g/ha, evaluated three weeks after application
Outline: as §4

persian speedwell [25] = experiment: Test Example 5: herbicidal effect by foliage application, plastic box (Table 20, symbol R); type: in vivo, Persian speedwell (Veronica persica); details: foliage application, 320 g/ha, evaluated three weeks after application
Outline: as §4

[26] = amount of applied herbicide 320 g/ha

Row | Structure (SMILES) | Herbicidal effect on A: late watergrass (grade 0-5) (late watergrass) | Herbicidal effect on B: Japanese bulrush (grade 0-5) (Japanese bulrush) | Herbicidal effect on C: oval-leafed pondweed (grade 0-5) (oval-leafed pondweed) | F: southern crabgrass, herbicidal effect rating (southern crabgrass [2]) | G: green foxtail, herbicidal effect rating (green foxtail [3]) | H: barnyard grass, herbicidal effect rating (barnyard grass [4]) | I: wild oat, herbicidal effect rating (wild oat [5]) | J: blackgrass, herbicidal effect rating (blackgrass [6]) | K: Italian ryegrass, herbicidal effect rating (Italian ryegrass [7]) | L: windgrass, herbicidal effect rating (windgrass [8]) | M: velvetleaf, herbicidal effect rating (velvetleaf [9]) | N: redroot pigweed, herbicidal effect rating (redroot pigweed [10]) | O: lambsquarters, herbicidal effect rating (lambsquarters [11]) | P: chickweed, herbicidal effect rating (chickweed [12]) | R: persian speedwell, herbicidal effect rating (persian speedwell [13]) | further results
1 | Cc1nn(C)c(=O)c(-c2c(-c3ccc(OC(C)C)cc3)sc3ccc(Cl)cc23)c1O [2-107] | 2 (Herbicidal rate of 20% or more and less than 40%) | 0 (Herbicidal rate of 5% or less (almost no effect)) | 0 (Herbicidal rate of 5% or less (almost no effect)) | 0 (Herbicidal rate of 5% or less (almost no effect)) | 0 (Herbicidal rate of 5% or less (almost no effect)) | 0 (Herbicidal rate of 5% or less (almost no effect)) | 0 (Herbicidal rate of 5% or less (almost no effect)) | 0 (Herbicidal rate of 5% or less (almost no effect)) | 0 (Herbicidal rate of 5% or less (almost no effect)) | 0 (Herbicidal rate of 5% or less (almost no effect)) | 0 (Herbicidal rate of 5% or less (almost no effect)) | 0 (Herbicidal rate of 5% or less (almost no effect)) | 0 (Herbicidal rate of 5% or less (almost no effect)) | 0 (Herbicidal rate of 5% or less (almost no effect)) | 5 (Herbicidal rate of 90% or more (almost completely withered)) | herbicidal effect on H (barnyard grass), rating 0-5 (barnyard grass [1]; 320 g/ha): 4 (Herbicidal rate of 70% or more and less than 90%); herbicidal effect on D (Chinese sprangletop), rating 0-5 (Chinese sprangletop; 320 g/ha): 0 (Herbicidal rate of 5% or less (almost no effect)); herbicidal effect on E (rice flat sedge), rating 0-5 (rice flat sedge; 320 g/ha): 2 (Herbicidal rate of 20% or more and less than 40%); herbicidal effect on F: southern crabgrass (southern crabgrass [14]): 3 (Herbicidal rate of 40% or more and less than 70%); herbicidal effect on G: green foxtail (green foxtail [15]): 4 (Herbicidal rate of 70% or more and less than 90%); herbicidal effect on H: barnyard grass (barnyard grass [16]): 4 (Herbicidal rate of 70% or more and less than 90%); herbicidal effect on I: wild oat (wild oat [17]): 0 (Herbicidal rate of 5% or less (almost no effect)); herbicidal effect on J: blackgrass (blackgrass [18]): 3 (Herbicidal rate of 40% or more and less than 70%); herbicidal effect on K: Italian ryegrass (Italian ryegrass [19]): 0 (Herbicidal rate of 5% or less (almost no effect)); herbicidal effect on L: windgrass (windgrass [20]): 4 (Herbicidal rate of 70% or more and less than 90%); herbicidal effect on M: velvetleaf (velvetleaf [21]): 3 (Herbicidal rate of 40% or more and less than 70%); herbicidal effect on N: redroot pigweed (redroot pigweed [22]): 4 (Herbicidal rate of 70% or more and less than 90%); herbicidal effect on O: lambsquarters (lambsquarters [23]): 3 (Herbicidal rate of 40% or more and less than 70%); herbicidal effect on P: chickweed (chickweed [24]): 5 (Herbicidal rate of 90% or more (almost completely withered)); herbicidal effect on R: persian speedwell (persian speedwell [25]): 5 (Herbicidal rate of 90% or more (almost completely withered))
2 | COc1cc(F)ccc1-c1sc2ccc(NS(C)(=O)=O)cc2c1-c1c(O)c(C)nn(C)c1=O [2-183] | 2 (Herbicidal rate of 20% or more and less than 40%) | 0 (Herbicidal rate of 5% or less (almost no effect)) | 0 (Herbicidal rate of 5% or less (almost no effect)) | 0 (Herbicidal rate of 5% or less (almost no effect)) | 0 (Herbicidal rate of 5% or less (almost no effect)) | 0 (Herbicidal rate of 5% or less (almost no effect)) | 0 (Herbicidal rate of 5% or less (almost no effect)) | 0 (Herbicidal rate of 5% or less (almost no effect)) | 0 (Herbicidal rate of 5% or less (almost no effect)) | 0 (Herbicidal rate of 5% or less (almost no effect)) | 0 (Herbicidal rate of 5% or less (almost no effect)) | 0 (Herbicidal rate of 5% or less (almost no effect)) | 0 (Herbicidal rate of 5% or less (almost no effect)) | 3 (Herbicidal rate of 40% or more and less than 70%) | 3 (Herbicidal rate of 40% or more and less than 70%) | herbicidal effect on H: barnyard grass (barnyard grass [1]; [26]): 4 (Herbicidal rate of 70% or more and less than 90%); herbicidal effect on D: Chinese sprangletop (Chinese sprangletop; [26]): 3 (Herbicidal rate of 40% or more and less than 70%); herbicidal effect on E: rice flat sedge (rice flat sedge; [26]): 0 (Herbicidal rate of 5% or less (almost no effect)); herbicidal effect on F: southern crabgrass (criteria 0-5) (southern crabgrass [14]): 0 (Herbicidal rate of 5% or less (almost no effect)); herbicidal effect on G: green foxtail (criteria 0-5) (green foxtail [15]): 0 (Herbicidal rate of 5% or less (almost no effect)); herbicidal effect on H: barnyard grass (criteria 0-5) (barnyard grass [16]): 0 (Herbicidal rate of 5% or less (almost no effect)); herbicidal effect on I: wild oat (criteria 0-5) (wild oat [17]): 0 (Herbicidal rate of 5% or less (almost no effect)); herbicidal effect on J: blackgrass (criteria 0-5) (blackgrass [18]): 4 (Herbicidal rate of 70% or more and less than 90%); herbicidal effect on K: Italian ryegrass (criteria 0-5) (Italian ryegrass [19]): 0 (Herbicidal rate of 5% or less (almost no effect)); herbicidal effect on L: windgrass (criteria 0-5) (windgrass [20]): 3 (Herbicidal rate of 40% or more and less than 70%); herbicidal effect on M: velvetleaf (criteria 0-5) (velvetleaf [21]): 1 (Herbicidal rate of 5% or more and less than 20%); herbicidal effect on N: redroot pigweed (criteria 0-5) (redroot pigweed [22]): 1 (Herbicidal rate of 5% or more and less than 20%); herbicidal effect on O: lambsquarters (criteria 0-5) (lambsquarters [23]): 3 (Herbicidal rate of 40% or more and less than 70%); herbicidal effect on P: chickweed (criteria 0-5) (chickweed [24]): 4 (Herbicidal rate of 70% or more and less than 90%); herbicidal effect on R: persian speedwell (criteria 0-5) (persian speedwell [25]): 4 (Herbicidal rate of 70% or more and less than 90%)

Reference: patent US20230085307A1, “PYRIDAZINONE COMPOUND AND HERBICIDE” (NISSAN CHEMICAL CORPORATION, priority 2019, published 2023)
